Results on three compounds are retold here after patent publication US20240361301A1, “METHODS AND COMPOSITIONS FOR MODULATING GOBLET CELLS AND FOR MUCO-OBSTRUCTIVE DISEASES” (Flagship Pioneering Innovations VI, LLC, priority 2021, published 2024).

The test system of experiment [1] is Human bronchial epithelial cells (HBECs) from COPD donors. As to the kind of experiment: IL-13 induced goblet hyperplasia in COPD donor HBEC air-liquid interface culture, qPCR. The following applies: 0.3 ng/ml IL-13, ALI day 14, vs DMSO. The class given is cell-based. The source says:
Air-liquid interface (ALI) differentiation of primary human bronchial epithelial cells (HBECs) is an accepted in vitro model of IL-13-induced goblet cell hyperplasia. HBECs were initially thawed into T75 flasks in PneumaCult maintenance media, allowed to expand, then seeded into apical chamber of transwells. After reaching confluency, medium was removed from the apical and basal chambers, and replaced only in the basal chamber with complete PneumaCult-ALI Medium to start air-liquid interface (ALI) differentiation. Cells were differentiated under ALI conditions for 14 days, in presence or absence of IL-13. Medium in the basal chamber containing IL-13 and test compounds was replenished 3 times a week, and excess mucus was washed from the apical chamber with PBS twice a week starting on day 7. At day 14, differentiation to goblet, ciliated, and club cells is assessed by histology (IHC) or qPCR, using goblet marker (Muc5ac), ciliated cell markers (Foxj1, Acetyl α-tubulin) and club cell marker (Scgb1a1) (FIG. 5).
Human bronchial epithelial cells (HBECs) from two COPD donors were differentiated in the presence of 0.3 ng/ml IL-13 and test compounds. At day 14, cultures were processed for qPCR, and evaluated for lung epithelial markers: goblet (Muc5ac), ciliated (Foxj1), club (Scgb1a1). 2^-ΔCt values were transformed to log form and normalized to DMSO. […]
In general terms: Real-time PCR tracks product formation cycle by cycle.

The test system of experiment [2] is mouse intestinal organoids. The following applies: factors known to induce markers of the intestinal lineages (Yin et al.), ENR media; cited from earlier work.
The subject of experiment [3] is mouse intestinal organoids. As to the kind of experiment: Mouse small intestinal organoid differentiation, lineage markers by Q-PCR. Format: cell-based. The following applies: mouse intestinal organoids in ENR media, after 5 days of treatments, FIG. 1. The source says: Cryopreserved mouse intestinal organoids derived from small intestine were obtained from Stem Cell Technologies. The organoids were thawed and propagated in Intesticult Growth Medium (Mouse) (purchased from Stem Cell Technologies) following the company's instructions. Briefly, approximately 100 organoid fragments/well are embedded in 6 Matrigel domes in 6-well plates and growth media is renewed every 2-3 days. The organoids are passaged every 5-6 days in 1:4 ratio. To assess the potential of the predicted perturbations to induce or reduce the goblet cell lineage during organoid differentiation, an in vitro assay was established to induce the various intestinal lineages (enterocytes, goblet cells, Paneth cells, Enteroendocrine cells) based on published data (Yin et al, Nat. Meth. 2013). Briefly, organoid fragments are embedded in Matrigel and grown in custom-made media in the presence of EGF, Noggin, Rspondin (ENR) supplemented with the indicated factors (Table 4) that are known to induce markers of the various intestinal lineages. The expression of markers and the induction of the various cell lineages was assessed by Q-PCRs after 5 days of treatments (FIG. 1). Further characterization of the organoids will be performed by immunofluorescence staining and flow cytometry. For immunofluorescence commercially available antibodies against Muc2, ChrA, and ALPI will be used.

Take `CC[C@H]1OC(=O)[C@H](C)[C@@H](O[C@H]2C[C@@](C)(OC)[C@@H](O)[C@H](C)O2)[C@H](C)[C@@H](O[C@@H]2O[C@H](C)C[C@H](N(C)C)[C@H]2O)[C@](C)(O)C[C@@H](C)CN(C)[C@H](C)[C@@H](O)[C@]1(C)O` [C]: the “goblet cells / goblet hyperplasia (Muc5ac qPCR)” value in experiment [1] (FIG. 6A) is recorded as “inhibited goblet cells”. Further, in experiment [1] (FIG. 6B-6C), the “differentiation to ciliated (Foxj1) and club (Scgb1a1) cells (qPCR)” value was “promoting or maintaining differentiation to ciliated and club cells”.
In the case of `C[C@H](NC(=O)Cc1cc(F)cc(F)c1)C(=O)N[C@H](C(=O)OC(C)(C)C)c1ccccc1` [DAPT], the “Cell lineage induced by factor” value in experiment [2] is “Enteroendocrine Cells, Paneth”. In experiment [3], the “expression of muc2 gene, a marker of Goblet cells (Q-PCR)” value was “induces the expression of muc2 gene”.
`Cc1ccc2nc(NC(=O)CSc3nc4c(c(=O)n3-c3ccccc3)SCC4)sc2c1` [IWP2]: in experiment [2], the “Cell lineage induced by factor” value is reported as “Enterocytes, Enteroendocrine Cells”.
